We go through five molecules from patent publication US11851670B2, “Nucleic acid constructs encoding reprogramming factors linked by self-cleaving peptides” (Whitehead Institute for Biomedical Research, priority 2008, dated 2023).

One experiment concerns huES cells. Conditions: cited from earlier work.
The test system of the next experiment is NGFP3 secondary MEFs. The experiment is described as follows: Effect of drugs on dox-induced reprogramming of secondary MEFs (GFP+ colony count). The format is cell-based, mouse. Particulars: dox plus 1 μM compound for two 48 h periods. The source says: We also tested whether the secondary cells could be used to assess the effect of drugs on the efficiency of reprogramming. For this we explored the effects of the DNA demethylating compound 5-Aza-deoxycytidine (5-Aza) and the histone deacetylase inhibitor trichostatin A (TSA). Because of their action on chromatin modifications both small molecules are candidates to improve the 5reprogramming efficiency.
For MEF isolation, chimeric embryos were isolated at E13.5 and the head and internal (including reproductive) organs were removed. Remaining tissue was physically dissociated and incubated in trypsin at 37° C. for 20 minutes, after which cells were resuspended in MEF media containing puromycin (2 μg/mL) and expanded for two passages prior to freezing. Secondary MEFs used for the described experiments were thawed and experiments plated 1-2 passages after thawing. Kinetic experiments (FIG. 2) were performed by plating 4×10^4 secondary MEFs per well in 6 well plates and plates were stained or analyzed at the indicated times. Cell density experiments were performed in 12 well plates and GFP+ iPS colonies were scored 4 weeks after dox induction. Single cell efficiency experiments were performed by plating single secondary MEFs onto a layer of wildtype feeder MEFS in 96 well plates prior to dox induction (using limiting dilutions, which were confirmed by eye in replicate plates lacking feeder MEFs). iPS formation was scored 4 weeks later. Representative experiments from 2-3 biological replicates are shown. For 5-Aza and TSA experiments, […] secondary MEFs were plated in 6 well plates (approx 100 cells/mm^2) and pretreated with ES cell media containing 5-Aza (1 μM) or TSA (1 μM) for 48 h. After 48 h, secondary MEFs were cultured in ES cell media plus dox lacking 5-Aza or TSA. MEFS were exposed to 5-Aza or TSA for a second 48 h period between days 8-10 after induction, followed by culture with dox only until scoring GFP+ colonies on day 21.

The next experiment has as its system mouse fibroblasts. Conditions: treatment decreasing global DNA methylation; cited from earlier work.
For a further experiment, the system named is SOX2-ER fusion construct. Kind of experiment: Tamoxifen-dependent activation of SOX2-ER fusion construct in transduced fibroblasts. Conditions: cells transduced with SOX2-ER fusion construct. The format is cell-based, human. The source says: (a) DOX inducible lentivirus vectors: Following the same strategy as used for murine genes we have generated lentiviral vectors that transduce the human OCT4, SOX2, KLF4 and C-MYC c-DNAs either constitutively or under the control of a DOX inducible promoter [Brambrink, 2008 #6877]. To generate a DOX inducible system we infected human fibroblasts with a lentiviral vector carrying the rtTA transactivator. […] (b) Tamoxifen inducible lentivirus vectors: To enable independent inducible control of vectors we also generated OCT4, SOX2 and C-MYC estrogen receptor (ER) fusion constructs by fusing the factors to the estrogen ligand binding domain to allow for tamoxifen dependent expression [Grandori, 1996 #6505].

A further experiment relates to ES cells. Conditions: chemically defined medium, absence of LIF; cited from earlier work.

Turning to `C[C@@H](N)[C@H]1CC[C@H](C(=O)Nc2ccncc2)CC1` [Y-27632], in the experiment with huES cells, the cloning efficiency entry was “increase cloning efficiency” and the dissociation-induced apoptosis result is “markedly diminish dissociation-induced apoptosis”.
Consider `CC(/C=C/C(=O)NO)=C\[C@@H](C)C(=O)c1ccc(N(C)C)cc1` [TSA, trichostatin A], for which the “reprogramming efficiency (number of GFP+ colonies)” value with NGFP3 secondary MEFs (GFP+ colonies scored on day 21) is listed as “no obvious effect on the number of colonies”.
On to `Nc1ncn([C@H]2C[C@H](O)[C@@H](CO)O2)c(=O)n1` [5-Aza, 5-Aza-deoxycytidine], for which the “reprogramming efficiency (number of GFP+ colonies)” value was “increased the reprogramming efficiency” with NGFP3 secondary MEFs (GFP+ colonies scored on day 21) and “substantially enhances the reprogramming efficiency” with NGFP3 secondary MEFs (GFP+ colonies scored on day 21, listed as 5-Aza-deoxycytidine). Also, in the experiment on mouse fibroblasts, the “reprogramming of mouse fibroblasts” value was “enhance reprogramming of mouse fibroblasts”.
On to `CC/C(=C(\c1ccccc1)c1ccc(OCCN(C)C)cc1)c1ccccc1` [tamoxifen], for which the “localisation of SOX2 protein after tamoxifen addition” value with SOX2-ER fusion construct is on record as “translocation of the SOX2 protein from the cytoplasm to the nucleus”.
Turning to `Cc1cc(Nc2ncc3c(n2)N(C)C(=O)N(c2cc(NC(=O)c4cccc(C(F)(F)F)c4)ccc2C)C3)n(C)n1` [pluripotin], the “self renewal of ES cells” value in the experiment with ES cells is “sustains self renewal of ES cells”.
